Results taken from ChEMBL document CHEMBL3286127, “Aminoadamantanes with persistent in vitro efficacy against H1N1 (2009) influenza A” (J Med Chem, 2014).

Experiments:
Influenza A virus [1] = experiment: Antiviral activity against Influenza A virus (A/Puerto Rico/8/34(H1N1)) infected in MDCK cells expressing M2 V27T/S31N mutant after overnight incubation by fluorescence-based miniplaque assay; assay type: functional, organism-based, A/Puerto Rico/8/1934(H1N1)
Influenza A virus [2] = experiment: Antiviral activity against Influenza A virus A/WS/33(H1N1) infected in MDCK cells expressing M2 S31N mutant after overnight incubation by fluorescence-based miniplaque assay; assay type: functional, organism-based
[3] = Antiviral activity against Influenza A virus (A/California/07/2009(H1N1)) infected in MDCK cells expressing M2 S31N mutant after overnight incubation by fluorescence-based miniplaque assay; assay type: functional, cell-based
[4] = system: Matrix protein 2 (Influenza A virus (A/Udorn/307/1972(H3N2))), P0DOF8 [S31N]; assay type: cell-based; settings: Influenza A virus (A/California/08/2009(H1N1)); HEK293; 100 uM

Row | Structure (SMILES) | EC50 (Influenza A virus [1]) | EC50 (Influenza A virus [2]) | EC50 [3] | Activity [4]
1 | CC(N)C12CC3CC(CC(C3)C1)C2 (stereo not given) [RIMANTADINE] | 3.3 µM | 310 µM | 110 µM | –
2 | NC1(c2ccccc2)C2CC3CC(C2)CC1C3 (stereo not given) | < 0.3 µM | 86 µM | 21 µM | –
3 | CCCC1(N)C2CC3CC(C2)CC1C3 (stereo not given) | 0.5 µM | 390 µM | 4.7 µM | 9.4%
4 | NC1(Cc2ccccc2)C2CC3CC(C2)CC1C3 (stereo not given) | 1.2 µM | 280 µM | 8.6 µM | –
5 | CCC1(N)C2CC3CC(C2)CC1C3 (stereo not given) | 1.8 µM | 23 µM | 25 µM | –
6 | CC1(N)C2CC3CC(C2)CC1C3 (stereo not given) | 0.4 µM | 19 µM | 54 µM | –
7 | CCCCCCC1(N)C2CC3CC(C2)CC1C3 (stereo not given) | 0.07 µM | 13 µM | 0.13 µM | –
8 | NC1C2CC3CC(C2)CC1C3 (stereo not given) | 3.8 µM | 110 µM | 150 µM | 16%
9 | NC12CC3CC(CC(C3)C1)C2 [AMANTADINE] | 24 µM | 24 µM | 240 µM | –
10 | CC(C)CC1(N)C2CC3CC(C2)CC1C3 (stereo not given) | 0.3 µM | 210 µM | 8 µM | –
11 | CCCCC1(N)C2CC3CC(C2)CC1C3 (stereo not given) | 0.3 µM | 355 µM | 8.5 µM | –
